In the NIST ThermoML archive (doi:10.1016/j.jct.2012.07.027):
Where “and” joins values, the source holds several entries; their conditions need not be identical. Identical values can stand only once. ± gives the expanded uncertainty stated by the source.

How the values were obtained:
[1] = Molar enthalpy of transition or fusion; conditions: Crystal; DSC
[2] = for vapor or sublimation pressure: Closed cell (Static) method; for Normal melting temperature: DTA

COC(=O)c1ccc(Br)cc1 [methyl 4-bromobenzoate]
Conditions | Molar enthalpy of transition or fusion [kcal/mol]
[1] | 6.17 ± 0.167

[2]
Conditions | vapor or sublimation pressure [kPa]
293.31 K, Crystal | 0.00042 ± 0.0001
295.32 K, Crystal | 0.00054 ± 0.0001
297.3 K, Crystal | 0.00068 ± 0.00011
299.26 K, Crystal | 0.00087 ± 0.00011
301.24 K, Crystal | 0.00109 ± 0.00011
303.23 K, Crystal | 0.00139 ± 0.00012
305.21 K, Crystal | 0.00173 ± 0.00012
307.22 K, Crystal | 0.0022 ± 0.00014
309.17 K, Crystal | 0.00277 ± 0.00015
311.2 K, Crystal | 0.00345 ± 0.00017
313.13 K, Crystal | 0.00422 ± 0.0002
315.14 K, Crystal | 0.00523 ± 0.00023
317.13 K, Crystal | 0.00651 ± 0.00028
319.04 K, Crystal | 0.00797 ± 0.00033
321.09 K, Crystal | 0.00985 ± 0.0004
323.08 K, Crystal | 0.0121 ± 0.00049
325.13 K, Crystal | 0.01501 ± 0.00055
327 K, Crystal | 0.01789 ± 0.00059
329.05 K, Crystal | 0.02213 ± 0.00066
331.03 K, Crystal | 0.02686 ± 0.00073
333 K, Crystal | 0.0324 ± 0.00081
335.03 K, Crystal | 0.03924 ± 0.00092
336.96 K, Crystal | 0.04713 ± 0.001
338.94 K, Crystal | 0.05664 ± 0.0012
340.91 K, Crystal | 0.0673 ± 0.0014
342.9 K, Crystal | 0.0811 ± 0.0016
344.79 K, Crystal | 0.09642 ± 0.0018
346.85 K, Crystal | 0.1156 ± 0.0021
348.81 K, Crystal | 0.1363 ± 0.0021
354.73 K, Liquid | 0.2096 ± 0.0027
356.68 K, Liquid | 0.233 ± 0.0029
358.69 K, Liquid | 0.259 ± 0.0032
360.68 K, Liquid | 0.2932 ± 0.0034
362.63 K, Liquid | 0.3282 ± 0.0037
364.63 K, Liquid | 0.365 ± 0.0041
366.59 K, Liquid | 0.4053 ± 0.0044
368.56 K, Liquid | 0.4511 ± 0.0048
370.53 K, Liquid | 0.5029 ± 0.0053
372.52 K, Liquid | 0.5539 ± 0.0057
374.48 K, Liquid | 0.6187 ± 0.0062
376.42 K, Liquid | 0.6825 ± 0.0068
378.43 K, Liquid | 0.752 ± 0.0074

Conditions | Normal melting temperature [°C]
[2], Crystal | 78.07 ± 0.42

COC(=O)c1ccc(Cl)cc1 [methyl 4-chlorobenzoate]
Conditions | Molar enthalpy of transition or fusion [kcal/mol]
[1] | 5.09 ± 0.143

[2]
Conditions | vapor or sublimation pressure [kPa]
276.44 K, Crystal | 0.00043 ± 0.0001
278.37 K, Crystal | 0.00055 ± 0.0001
280.36 K, Crystal | 0.00071 ± 0.0001
282.35 K, Crystal | 0.00092 ± 0.0001
284.34 K, Crystal | 0.00118 ± 0.00011
285.3 K, Liquid | 0.00301 ± 0.00015
286.32 K, Crystal | 0.00148 ± 0.00011
287.31 K, Liquid | 0.00363 ± 0.00017
288.29 K, Crystal | 0.00191 ± 0.00012
289.27 K, Liquid | 0.00436 ± 0.0002
290.31 K, Crystal | 0.00242 ± 0.00014
291.28 K, Liquid | 0.0052 ± 0.00023
292.3 K, Crystal | 0.00308 ± 0.00016
293.26 K, Liquid | 0.00618 ± 0.00026
294.26 K, Crystal | 0.00389 ± 0.00018
295.27 K, Liquid | 0.00739 ± 0.00031
296.29 K, Crystal | 0.00489 ± 0.00022
297.26 K, Liquid | 0.00872 ± 0.00036
298.24 K, Crystal | 0.00611 ± 0.00026
299.23 K, Liquid | 0.01031 ± 0.00042
300.23 K, Crystal | 0.00765 ± 0.00032
301.21 K, Liquid | 0.01212 ± 0.00048
302.21 K, Crystal | 0.00956 ± 0.00039
303.18 K, Liquid | 0.01428 ± 0.00053
304.18 K, Crystal | 0.01181 ± 0.00047
305.19 K, Liquid | 0.01678 ± 0.00057
306.12 K, Crystal | 0.01452 ± 0.00054
307.17 K, Liquid | 0.01959 ± 0.00061
308.18 K, Crystal | 0.01815 ± 0.00059
309.12 K, Liquid | 0.02291 ± 0.00067
310.15 K, Crystal | 0.0222 ± 0.00066
311.13 K, Liquid | 0.02675 ± 0.00073
312.09 K, Crystal | 0.02704 ± 0.00073
313.12 K, Liquid | 0.0311 ± 0.00079
314.62 K, Liquid | 0.03483 ± 0.00085
316.12 K, Liquid | 0.03877 ± 0.00091
318.07 K, Liquid | 0.0448 ± 0.001
318.88 K, Liquid | 0.04755 ± 0.001
321.14 K, Liquid | 0.05585 ± 0.0012
322.9 K, Liquid | 0.06343 ± 0.0013
324.86 K, Liquid | 0.07327 ± 0.0014
327.05 K, Liquid | 0.084 ± 0.0016
329.03 K, Liquid | 0.0959 ± 0.0018
331 K, Liquid | 0.1092 ± 0.002
332.98 K, Liquid | 0.125 ± 0.0022
333.97 K, Liquid | 0.1325 ± 0.002

Conditions | Normal melting temperature [°C]
[2], Crystal | 41.98 ± 0.44

COC(=O)c1ccc(F)cc1 [methyl p-fluorobenzoate]
Conditions | Molar enthalpy of transition or fusion [kcal/mol]
[1] | 3.68 ± 0.12

[2], Liquid
Conditions | vapor or sublimation pressure
268.58 K | 0.00431 ± 0.00028 kPa
270.54 K | 0.00518 ± 0.0003 kPa
272.52 K | 0.00628 ± 0.00034 kPa
274.49 K | 0.00754 ± 0.00037 kPa
276.46 K | 0.00902 ± 0.00041 kPa
278.44 K | 0.01071 ± 0.00047 kPa
280.4 K | 0.01279 ± 0.00053 kPa
281.87 K | 0.01451 ± 0.00056 kPa
283.38 K | 0.0165 ± 0.00059 kPa
285.35 K | 0.0195 ± 0.00064 kPa
287.34 K | 0.02314 ± 0.00069 kPa
289.34 K | 0.02719 ± 0.00075 kPa
291.34 K | 0.0319 ± 0.00082 kPa
293.24 K | 0.03702 ± 0.00089 kPa
295.27 K | 0.04353 ± 0.00099 kPa
297.28 K | 0.05103 ± 0.0011 kPa
299.22 K | 0.05905 ± 0.0012 kPa
301.21 K | 0.06815 ± 0.0014 kPa
303.17 K | 0.07895 ± 0.0015 kPa
305.16 K | 0.09121 ± 0.0017 kPa and 0.09107 ± 0.0017 kPa
307.18 K | 0.1051 ± 0.0019 kPa
309.2 K | 0.1209 ± 0.0022 kPa
311.15 K | 0.1388 ± 0.0021 kPa
313.16 K | 0.1594 ± 0.0023 kPa
315.12 K | 0.1817 ± 0.0025 kPa
317.15 K | 0.208 ± 0.0027 kPa
319.07 K | 0.2349 ± 0.0029 kPa
321.11 K | 0.2685 ± 0.0032 kPa
323.09 K | 0.3015 ± 0.0035 kPa
325.07 K | 0.3433 ± 0.0039 kPa
327.04 K | 0.3848 ± 0.0043 kPa
329.03 K | 0.4342 ± 0.0047 kPa
331 K | 0.4875 ± 0.0051 kPa
332.99 K | 0.549 ± 0.0057 kPa
334.97 K | 0.6142 ± 0.0062 kPa
336.95 K | 0.6904 ± 0.0069 kPa
338.92 K | 0.7681 ± 0.0076 kPa
340.9 K | 0.8612 ± 0.0084 kPa and 0.8627 ± 0.0084 kPa
342.87 K | 0.9546 ± 0.0092 kPa
344.85 K | 1.061 ± 0.01 kPa

Conditions | Normal melting temperature [°C]
[2], Crystal | 0.6 ± 0.39

COC(=O)c1ccc(I)cc1 [methyl p-iodobenzoate]
Conditions | Molar enthalpy of transition or fusion [kcal/mol]
[1] | 7.1 ± 0.191

[2]
Conditions | vapor or sublimation pressure [kPa]
313.11 K, Crystal | 0.00044 ± 0.00011
315.03 K, Crystal | 0.00054 ± 0.00011
317.12 K, Crystal | 0.00069 ± 0.00011
319.05 K, Crystal | 0.00087 ± 0.00011
321.04 K, Crystal | 0.00108 ± 0.00012
323.04 K, Crystal | 0.00134 ± 0.00012
325 K, Crystal | 0.00165 ± 0.00013
326.97 K, Crystal | 0.00206 ± 0.00014
329 K, Crystal | 0.00253 ± 0.00015
330.93 K, Crystal | 0.00315 ± 0.00017
332.89 K, Crystal | 0.00387 ± 0.00019
334.91 K, Crystal | 0.00478 ± 0.00022
336.94 K, Crystal | 0.00583 ± 0.00026
342.8 K, Crystal | 0.01054 ± 0.00043
346.74 K, Crystal | 0.01524 ± 0.00055
350.73 K, Crystal | 0.02236 ± 0.00066
352.75 K, Crystal | 0.02707 ± 0.00073
356.66 K, Crystal | 0.03886 ± 0.00091
358.67 K, Crystal | 0.04652 ± 0.001
360.6 K, Crystal | 0.05489 ± 0.0012
362.63 K, Crystal | 0.06557 ± 0.0013
364.61 K, Crystal | 0.07801 ± 0.0015
366.58 K, Crystal | 0.09145 ± 0.0017
368.45 K, Crystal | 0.1085 ± 0.002
370.54 K, Crystal | 0.127 ± 0.0023
372.47 K, Crystal | 0.1479 ± 0.0022
374.46 K, Crystal | 0.1734 ± 0.0024
376.44 K, Crystal | 0.2047 ± 0.0027
378.41 K, Crystal | 0.2394 ± 0.003
380.38 K, Crystal | 0.2786 ± 0.0033
386.32 K, Liquid | 0.4305 ± 0.0047
388.2 K, Liquid | 0.4717 ± 0.005
390.26 K, Liquid | 0.5231 ± 0.0054
391.24 K, Liquid | 0.5484 ± 0.0057
392.21 K, Liquid | 0.5758 ± 0.0059
394.18 K, Liquid | 0.6343 ± 0.0064
396.15 K, Liquid | 0.698 ± 0.0069
398.14 K, Liquid | 0.7666 ± 0.0075
400.1 K, Liquid | 0.8418 ± 0.0082
402.07 K, Liquid | 0.9228 ± 0.0089
404.04 K, Liquid | 1.011 ± 0.01
406.02 K, Liquid | 1.106 ± 0.011

Conditions | Normal melting temperature [°C]
[2], Crystal | 113.52 ± 0.39
